Test results as given in patent US12618044B2, “Specification of functional cranial placode derivatives from human pluripotent stem cells” (MEMORIAL SLOAN-KETTERING CANCER CENTER, priority 2013, dated 2026).
Where a name gives a salt, the structure may show the parent alone.

Tests used:
Type in all cases: cell-based, human
pre-placodal cells = test: Pituitary placode specification under modified PIP
Source text: Further treatment with agonists for SHH signaling (FIG. 39A) at the pre-placode stage (day 7-11) induced expression of the oral ectoderm marker SIX6 and PITX1 (FIG. 38B), master regulators of pituitary gland development (Tremblay et al., 1998).
Endocrine cells of the anterior pituitary gland are derived from three main precursors lineages (Scully and Rosenfeld, 2002). […] Induction of PIT1 and GATA2 precursor lineages was less efficient but was increased following treatment with the γ-secretase inhibitor DAPT (FIGS. 38F, 38G).
Differentiation of hormone producing cells: During placode induction protocol, Sonic Hedgehog (C25II-R&D 100 ng/ml) and Purmorphamine (Stemgent, 1 μM) were added between days 7-11 of PIP to promote differentiation towards pituitary placode anlage. The cells were maintained without passaging in N2 medium and treated with additional factors such as DAPT (Tocris, 10 μM), between day 13 and day 17 of differentiation to induce PIT1+ and GATA2+ precursor cells (see FIG. 39A).

SIX1::GFP cells = test: PIP-E6 pituitary induction and hormone release
Experimental: Induction of anterior pituitary gland cells: Pituitary placode cells were induced by culturing SIX1::GFP cells according to the PIP-E6 protocol, wherein pituitary factors SHH, FGF8, FGF10 and/or hypothalamus CM were supplemented in the culture media from days 6-15.
Induction of anterior pituitary gland cells: SIX1::GFP hPSCs were cultured according to a modified PIP-E6 protocol, wherein pituitary factors such as FGF8, FGF10 or SHH, etc., were included in the culture media from days 6-14. Cells were sorted based on expression of SIX1::GFP, and were replated at a concentration of 10,000 cells/cm^2 on PO/L/F, and were incubated with small molecule/growth factors for 2 weeks. (FIG. 68). […] (FIG. 69).

hESC = test: Neural induction of hESC by dual SMAD inhibition (PAX6 expression); conditions: 10 uM to 30 nM, each added to 10 uM of SB431542
Experimental: In one embodiment, the present invention contemplates a method establishing an even cell distribution for inducing homogenous neural differentiation of hESCs. To this end, undifferentiated hESC were dissociated into single cells and re-plated onto Matrigel coated dishes in conditioned medium supplement with ROCK inhibitor, Y-27632 (Wananabe et al., 2007). After 72 hours, cells were switched from hESC conditions to knock-out serum replacement medium (KSR) containing either Noggin, SB4315242, or both factors and allowed to differentiate for a total of 11 days (FIG. 1A). […] Neural induction was monitored by expression of PAX6, an early marker of neuroectodermal differentiation (Callaerts, et al., Annu Rev Neurosci 20:483 (1997).
hESC cultures were disaggregated using accutase for 20 minutes, washed using hESC media and pre-plated on gelatin for 1 hour at 37° C. in the presence of ROCK inhibitor to remove MEFs. The nonadherent hESC were washed and plated on matrigel at a density of 10,000-25,000 cells/cm^2 on matrigel (BD) coated dishes in MEF conditioned hESC media (CM) spiked with 10 ng/mL of FGF-2 and ROCK-inhibitor. […] The ROCK inhibitor was withdrawn, and hESC were allowed to expand in CM for 3 days or until they were nearly confluent. […]

[1] = system: NSB derived neural precursor cells; test: Ventral patterning of NSB derived neural precursor cells by FP conditioned media; conditions: with CM from hESC derived FP
Source text: The FP has important functional roles during development in neural patterning and axonal path finding (Jessell, 2000). To assess the functional properties of hESCs derived FP conditioned media was isolated at days 9 and 11 and tested for expression of Netrin-1 in the medium using ELISA (FIG. 17A). Under normal NSB conditions, Netrin-1 is detectable at Day 9 and decreases at Day 11 while in the NSB+SHH condition, there is a 3.5 fold increase in Netrin-1 levels, increasing at Day 11 (FIG. 17B). SHH is a critical patterning factor secreted by FP cells and specifying ventral cell types in a dose-dependent manner. To test if hESCs derived FP secretes factors that can specify ventral precursor domains, conditioned media (CM) was isolated at Days 9 and 11 of the differentiation. At Day 6, exogenous SHH was removed and cultures were washed to eliminate any exogenously added SHH from the medium. Naïve neural progenitor cells were isolated at Day 11 of the control (NSB) protocol and cultured with either NSB CM or FP CM. After Day 5 of culture in the presence of CM, the inventors probed for the expression of ventral precursor markers and expression of the SHH responsive gene GLI2. […] Increase in the expression of ventral markers was confirmed at the level of protein (FIG. 17D).

**Q.** With C[C@H](NC(=O)Cc1cc(F)cc(F)c1)C(=O)N[C@H](C(=O)OC(C)(C)C)c1ccccc1 [DAPT] as the compound, how does the “Induction of PIT1 and GATA2 precursor lineages” value (pre-placodal cells) read?
**A.** increased

**Q.** What about the “proportion of each of the three pituitary precursor lineages” value (SIX1::GFP cells) of the same compound?
**A.** modulated

**Q.** Which “efficiency based on the percentage of PAX6+ cells, versus Noggin/SB431542” value (hESC) does the source give for c1cc(-c2cnn3cc(-c4ccc(OCCN5CCCCC5)cc4)cnc23)ccn1 [Dorsomorphin, 6-[4-[2-(1-Piperidinyl)ethoxy]phenyl]-3-(4-pyridinyl)-pyrazolo[1,5-a]pyrimidine dihydrochloride] here?
**A.** not as high

**Q.** With CC1=C2C[C@H]3[C@@H](CC=C4C[C@@H](O)CC[C@@]43C)[C@@H]2CC[C@]12O[C@@H]1C[C@H](C)CN[C@H]1[C@H]2C [cyclopamine] as the compound, how does the “NKX2.1, NKX6.1, and GLI2 expression” value [1] read?
**A.** significantly reduced
